Assay results: patent US20150080468A1, “COMPOSITION AND METHOD FOR PROCESSING AND DELIVERING BIOAVAILABLE METHIONINE ANALOGS, DERIVATIVES, AND PRECURSORS, THEREOF” (QUALITY LIQUID FEEDS, priority 2013, published 2015)
Values after ≈ are worked out from the molar mass of the structure shown. Values joined by “and” are separate entries in the source; they are usually repeats but may differ in a detail not shown here. Equal entries are not always repeated.

Legend:
[1] = Freeze/thaw study: viscosity, flowability and superfusion (Example 2); type: physicochemical
Experimental: A range of inclusion rates of the HMBi was used in the second example to further investigate the reduction or retardation of the superfusion property of the methionine analog (HMBi) added to a simple feed mill blend molasses liquid product.
Eight formulations were evaluated in regards to product positional stability, product pH, temperature, viscosity as affected by temperature and time. Viscosity measurements were being used to determine flow ability thus whether or not the product can be pumped without external heating. If HMBi is stored in conditions where its temperature drops below 54° F. (12.2° C.), it will solidify or undergo superfusion which will not allow it to be pumped. As you can see in FIG. 6, the HMBi is solid and will remain solid for several hours while thawing. During the thawing process, the HMBi will liquefy with a solid ball surrounded by liquid. This solid ball could potentially plug the inside fixture of a tank not allowing for flow to the pump. During the Example E2 study, it took about eight days of the 100% HMBi in sub-zero temperatures before it underwent superfusion. The container in FIG. 6 had to be shaken quite vigorously to get the HMBi to solidify. It was not moved until the late afternoon of day 7. By the morning of day 8, it was solid.
The containers used were clear PET plastic one quart capacity with wide mouth openings. All samples were placed in a sub-zero freezer until the samples were solid. As stated above, it took eight days for the 100% HMBi to undergo the superfusion process, thus all eight samples were frozen solid at about −9° F. (−22.8° C.) which is exactly what was needed for Example E2.
Once all samples were frozen, they were moved to a force-draft fume hood to allow warm air to be drawn over the jars to hasten thawing. When the samples were soft enough to get a metal tipped thermometer into the samples, temperatures were taken and recorded. Viscosity was measured once the samples thawed enough; temperatures were also taken at that time. The process of freezing and thawing was repeated once. These samples were not stirred or shaken except for the 100% HMBi sample to get it to undergo superfusion.
All formulated samples were mixed by the procedures and using the equipment described in Example E1. The same temperature probe, viscometer, and pH meter were also used.
Observations and data were collected when the samples had thawed enough to allow for viscosity and temperature measurements. The freezing and thawing was repeated once to confirm results. Laboratory room temperature was between 68 to 70° F. Any product having a viscosity over 5,000 cPs using a spindle sO5 will not flow nor be pumpable without added heat.

[2] = dairy cows; cited from earlier work
[3] = Sub-zero freezing and thawing of 3×, 4× and 100% HMBi after the 56 day study; type: physicochemical
Experimental: Each bar represents a data collection day: 1, 7, 14, 21, 29, 35, 42, 50, and 56 days. […] Mixing or re-circulation every other day will also maintain positional and product stability plus decrease product viscosity. Additionally, lower temperatures were tried for the 3× and 4× plus the HMBi straight or 100% additive after the 56 day study. […] However, the 100% HMBi was frozen solid. The liquid 100% HMBi freezes or solidifies at temperatures below 54° F. or 12° C. when the HMBi liquid is acted upon by an outside force such as mixing or pumping. This “Superfusion” property of the liquid 100% HMBi requires expensive heated storage equipment and plumbing to allow for use in a feed mill environment. After 72 hours in a deep freeze, the 3× and 4× also froze solid.

[4] = cited from earlier work

Structure (SMILES): CSCCC(O)C(=O)OC(C)C (stereo not shown) [100% HMBi, isopropyl ester of 2-hydroxy-4-methylthiobutanoic acid]
- Viscosity ([1]; Dec. 31, 2009, initial, 77.3-79.6 °F, spindle sO1/sO2): 37 cPs
- Viscosity ([1]; Jan. 1, 2010, in freezer, -1.0 to 1.3 °F, spindle sO6 (100%: sO1)): 174 cPs and 173.6 cPs
- Viscosity ([1]; Jan. 2, 2010, in freezer, -3.9 to -0.2 °F, spindle sO6 (100%: sO1)): 157.6 cPs
- Physical state (no viscosity reading) ([1]; Jan. 14, 2010, 2:59-3:34 PM, thawing): solid
- Physical state (no viscosity reading) ([1]; Jan. 14, 2010, 2:59-3:34 PM, thawing, listed as 100%): SOLID
- Physical state (no viscosity reading) ([1]; Jan. 14, 2010, 3:50-4:15 PM, thawing): still solid
- Physical state (no viscosity reading) ([1]; Jan. 14, 2010, 3:50-4:15 PM, thawing, listed as 100%): SOLID
- Physical state (no viscosity reading) ([1]; Jan. 14, 2010, 4:40-5:10 PM, thawing, 47.7 °F): semi-solid
- Physical state (no viscosity reading) ([1]; Jan. 14, 2010, 4:40-5:10 PM, thawing, 47.7 °F, listed as 100%): SEMI-SOLID
- Physical state (no viscosity reading) ([1]; Jan. 15, 2010, 4:19-4:51 PM, second thaw, 45.0 °F): semi-solid
- Physical state (no viscosity reading) ([1]; Jan. 15, 2010, 4:19-4:51 PM, second thaw, 45.0 °F, listed as 100%): SEMI-SOLID
- Physical state (no viscosity reading) ([1]; Jan. 15, 2010, 10:55-11:20 AM, second freeze): solid
- Physical state (no viscosity reading) ([1]; Jan. 15, 2010, 10:55-11:20 AM, second freeze, listed as 100%): SOLID
- Physical state (no viscosity reading) ([1]; Jan. 15, 2010, 12:05-12:27, second thaw): semi-solid
- Physical state (no viscosity reading) ([1]; Jan. 15, 2010, 12:05-12:27, second thaw, listed as 100%): SOLID
- Time in sub-zero temperatures before superfusion ([1]; sub-zero freezer, shaken on day 7): about eight
- metabolizable methionine provided [2]: 370 g/kg
- rumen available HMB provided [2]: 370 g/kg
- Flowability / state ([3]; less than 0° F. or -17.8° C. for 24 hours): frozen solid
- Further time until return to a liquid state ([3]; thawing after deep freeze): about 12 hours
- Temperature at return to a liquid state ([3]; thawing after deep freeze): approximately 56 ° F.
- Viscosity at 20° C. ([4]; 20 °C): 19.2 mPa/s
- Crystallization (solidification, superfusion) temperature ([4]; ambient pressure): below 54 ° F.
- pH ([4]; in a 1% aqueous solution): 3.6
- Solubility ([4]; water at 30° C.): 25.1 mg/mL (≈ 131 mM)
